Key:
p-Erk1/2 = test: Quantitative IHC of sequential tumor biopsies (Day 0 vs Day 21): p-Erk1/2
Description: (§1) Patients were monitored by physical examination, clinical chemistry and hematology blood tests, and formally re-staged after 8 weeks of therapy. […] Response was classified as Complete Response (CR), Partial Response (PR), Stable Disease (SD) or Progressive Disease (PD). Patients with CR, PR or SD were considered to have a positive clinical response. Patients with Progressive Disease (PD) were considered to have a negative clinical response.
(§2) Biopsies were fixed in 10% neutral buffered formalin (NBF) and paraffin-embedded sections prepared. Hematoxylin and eosin (H&E) staining was used to confirm for the presence of tumor.
(§3) The VMSI “I-View” detection kit was used for all three of the VMSI pre-diluted primary antibodies. Erk1/2 (1:1200), and TGFalpha (1:20) were immunostained using the “BenchMark” with I-VIEW detection chemistry. Phospho-Erk1/2 (1:100) and p-Akt (1:75) were immunostained using a labeled streptavidin peroxidase technique. […] Slides were placed onto the Autostainer (Dako, Carpinteria, Calif.) and used the labeled streptavidin-biotin peroxidase method (LSAB2 kit, Dako) as the detection chemistry. After staining, ErbB1, ErbB2, Erk1/2, p-Akt, p-Erk1/2, p-ErbB1, p-ErbB2, cyclin D1, IGF-IR, and TGFalpha were counterstained manually with 4% ethyl green (Sigma-Aldrich). […] Investigators preparing and analyzing tissue sections were blinded to both patient tumor type and response to therapy.
(§4) Expression of ErbB1, ErbB2, p-ErbB1, p-ErbB2, Erk1/2, p-Erk1/2, Akt, p-Akt, TGFalpha, IGF-IR and cyclin D1 was assessed by IHC with automated image analysis using established assays; OD values were assigned to each specimen.
(§5) For purposes of this Example, “inhibition” of a biomarker refers to a decrease in the level of the biomarker, assessed by comparing the level detected in a Day 0 biopsy from a patient to the level detected in a Day 21 biopsy from the same patient.

TGFalpha = test: Quantitative IHC of sequential tumor biopsies (Day 0 vs Day 21): TGFalpha; conditions: 900 mg/day; for TGFa % change: Day 21 vs Day 0
Description: as §1, §2, §3, §4, §5

ErbB2 = test: Quantitative IHC of sequential tumor biopsies (Day 0 vs Day 21): ErbB2; conditions: 900 mg/day; for ErbB2 % change: Day 21 vs Day 0
Description: as §1, §2, §3, §4, §5

p-ErbB1 = test: Quantitative IHC of sequential tumor biopsies (Day 0 vs Day 21): p-ErbB1; format: in vivo, human; conditions: for pErbB1 % change: Day 21 vs Day 0
EGFR autophosphorylation = conditions: tumor cell lines that overexpress these receptors; cited from earlier work
p-Akt = test: Quantitative IHC of sequential tumor biopsies (Day 0 vs Day 21): p-Akt; conditions: for pAkt % change: Day 21 vs Day 0; for p-Akt inhibition (Day 21 vs Day 0): PR
Description: as §1, §2, §3, §4, §5

ErbB1 = test: Quantitative IHC of sequential tumor biopsies (Day 0 vs Day 21): ErbB1; conditions: 900 mg/day; for ErbB1 % change: Day 21 vs Day 0
Description: as §1, §2, §3, §4, §5

[1] = tested on: ErbB2 autophosphorylation; conditions: tumor cell lines that overexpress these receptors; cited from earlier work
[2] = tested on: metastatic cancers overexpressing ErbB2 and/or expressing ErbB1; test: Clinical response (RECIST) in open-label randomized dose-cohort trial; format: in vivo, human; conditions: for Partial Response (PR), number of patients / Stable Disease (SD), number of patients: all subjects
Method: Clinical response was assessed after 8 weeks of therapy.
The Institutional Review Boards at the Sarah Cannon Cancer Center, University of North Carolina-Chapel Hill/Lineberger Comprehensive Cancer Center, Duke University Medical Center, and Case Western Reserve Medical Center approved this study.
Patients with a positive response to treatment (CR, PR or SD) continued on therapy with re-staging every 8 weeks thereafter. Patients were withdrawn from study upon evidence of disease progression or intolerable side effects.

cyclin D1 = test: Quantitative IHC of sequential tumor biopsies (Day 0 vs Day 21): cyclin D1; conditions: for Cyclin D % change: Day 21 vs Day 0
Description: as §1, §2, §3, §4, §5

tumor cells = test: TUNEL assay of sequential tumor biopsies (Day 0 vs Day 21), tumor cell apoptosis; conditions: for TUNEL % change: Day 21 vs Day 0; for TUNEL % change / TUNEL score (percent tumor cells staining positive), Day 21: 900 mg/day
Description: A commonly used method is TUNEL (Terminal deoxynucleotidyl Transferase Biotin-dUTP Nick End Labeling). One of the characteristics of apoptosis is the degradation of DNA after the activation of Ca/Mg dependent endonucleases. This DNA cleavage leads to strand breaks within the DNA. The TUNEL method identifies apoptotic cells in situ by using terminal deoxynucleotidyl transferase (TdT) to transfer biotin-dUTP to the free 3′-OH of cleaved DNA. The biotin-labeled cleavage sites are then visualized by reaction with fluorescein conjugated avidin (avidin-FITC).
as §1
TUNEL assay (Roche Diagnostics, Indianapolis, Ind.) was performed according to the manufacturer's instructions. Investigators preparing and analyzing tissue sections were blinded to both patient tumor type and response to therapy.
TUNEL scores represent the percent tumor cells staining positive.
For purposes of this Example, an “increase” in TUNEL score refers to an increased TUNEL score in the Day 21 biopsy, compared to the TUNEL score of the Day 0 biopsy from the same patient.
TUNEL staining is a quantitative measurement of DNA fragmentation characteristic of cellular apoptosis.

p-ErbB2 = test: Quantitative IHC of sequential tumor biopsies (Day 0 vs Day 21): p-ErbB2; conditions: for pErbB2 % change: Day 21 vs Day 0
Description: as §1, §2, §3, §4, §5

[3] = additional patient with non-inflammatory metastatic breast cancer, PR, 1200 mg/d, 21 days
[4] = patient with breast cancer, PD after 8 weeks (Table 5)
[5] = patient with non-inflammatory metastatic breast cancer, PR, 900 mg/day
[6] = second patient with IBC, PR (Table 4)
[7] = breast cancer patient, Progressive Disease
[8] = refractory Inflammatory Breast Cancer patient, Partial Response
[9] = breast cancer patient, 900 mg/day, Progressive Disease
[10] = refractory Inflammatory Breast Cancer patient, 900 mg/day, Partial Response
[11] = Breast, 30 enrolled, 500-1,600 mg orally once daily
[12] = Carcinoma of Unknown Primary, 5 enrolled
[13] = first patient with IBC, PR, 650 mg/d, 21 days

CS(=O)(=O)CCNCc1ccc(-c2ccc3ncnc(Nc4ccc(OCc5cccc(F)c5)c(Cl)c4)c3c2)o1 [lapatinib]
p-Erk1/2 inhibition (Day 21 vs Day 0) (p-Erk1/2; [3]): complete inhibition | p-Erk1/2 inhibition (Day 21 vs Day 0) (p-Erk1/2; [4]): 87% | p-Erk1/2 inhibition (Day 21 vs Day 0) (p-Erk1/2; [5]): completely inhibited | p-Erk1/2 inhibition (Day 21 vs Day 0) (p-Erk1/2; [6]): 68% | TGFa % change (TGFalpha; [7]): −53% | TGFa % change (TGFalpha; [8]): −61% | TGFa (IHC OD value), Day 21 (TGFalpha; [7]): 23 | TGFa (IHC OD value), Day 21 (TGFalpha; [8]): 21 | ErbB2 % change (ErbB2; [7]): −27% | ErbB2 % change (ErbB2; [8]): −7% | ErbB2 (IHC OD value), Day 21 (ErbB2; [7]): 32 | ErbB2 (IHC OD value), Day 21 (ErbB2; [8]): 65 | pErbB1 % change (p-ErbB1; [9]): −81% | pErbB1 % change (p-ErbB1; [10]): −80% | p-ErbB1 inhibition (Day 21 vs Day 0) (p-ErbB1; [3]): not associated with any appreciable inhibition | pErbB1 (IHC OD value), Day 21 (p-ErbB1; [9]): 3 | p-ErbB1 inhibition (Day 21 vs Day 0) (p-ErbB1; [4]): 81% | p-ErbB1 inhibition (Day 21 vs Day 0) (p-ErbB1; [5]): 31% | pErbB1 (IHC OD value), Day 21 (p-ErbB1; [10]): 1 | p-ErbB1 inhibition (Day 21 vs Day 0) (p-ErbB1; [6]): 80% | EGFR autophosphorylation (EGFR autophosphorylation): inhibits | pAkt % change (p-Akt; [9]): −8% | pAkt % change (p-Akt; [10]): −0% | p-Akt inhibition (Day 21 vs Day 0) (p-Akt; additional patient with non-inflammatory metastatic breast cancer, 1200 mg/d, 21 days): 34% | pAkt (IHC OD value), Day 21 (p-Akt; [9]): 33 | p-Akt inhibition (Day 21 vs Day 0) (p-Akt; first patient with IBC, 650 mg/d, 21 days): 90% | p-Akt change (Day 21 vs Day 0) (p-Akt; [4]): essential unchanged | p-Akt inhibition (Day 21 vs Day 0) (p-Akt; patient with non-inflammatory metastatic breast cancer, 900 mg/day): 44% | pAkt (IHC OD value), Day 21 (p-Akt; [10]): 20 | p-Akt change (Day 21 vs Day 0) (p-Akt; [6]): essentially unchanged | ErbB1 % change (ErbB1; [7]): +35% | ErbB1 % change (ErbB1; [8]): −9% | ErbB1 (IHC OD value), Day 21 (ErbB1; [7]): 19 | ErbB1 (IHC OD value), Day 21 (ErbB1; [8]): 32 | ErbB2 autophosphorylation [1]: inhibits | Partial responses (PR), number of patients ([2]; 33 patients with sequential tumor biopsies, breast cancer): 4 | Disease stabilization (SD), number of patients ([2]; 33 patients with sequential tumor biopsies, various malignancies): 11 | Partial Response (PR), number of patients [2, 11]: 4 | Stable Disease (SD), number of patients [2, 11]: 10 | Partial Response (PR), number of patients [2, 12]: 0 | Stable Disease (SD), number of patients [2, 12]: 5 | Partial Response (PR), number of patients ([2]; Colon, 7 enrolled): 0 | Stable Disease (SD), number of patients ([2]; Colon, 7 enrolled): 2 | Partial Response (PR), number of patients ([2]; Head and Neck, 5 enrolled): 0 | Stable Disease (SD), number of patients ([2]; Head and Neck, 5 enrolled): 3 | Partial Response (PR), number of patients ([2]; Lung, 11 enrolled): 0 | Stable Disease (SD), number of patients ([2]; Lung, 11 enrolled): 6 | Partial Response (PR), number of patients ([2]; Other tumor types, 5 enrolled): 0 | Stable Disease (SD), number of patients ([2]; Other tumor types, 5 enrolled): 4 | Partial Response (PR), number of patients ([2]; Ovarian, 4 enrolled): 0 | Stable Disease (SD), number of patients ([2]; Ovarian, 4 enrolled): 2 | Partial Response (PR), number of patients ([2]; Total, 67 enrolled): 4 | Stable Disease (SD), number of patients ([2]; Total, 67 enrolled): 32 | Number of patients with Partial Response ([2]; dose 650 mg/day): 1 | Number of patients with Partial Response ([2]; dose 900 mg/day): 1 | Number of patients with Partial Response ([2]; dose 1200 mg/day): 2 | Response Duration, median ([2]; patients with Partial Response): 5+ months | Cyclin D % change (cyclin D1; [9]): −76% | Cyclin D % change (cyclin D1; [10]): −57% | cyclin D inhibition (Day 21 vs Day 0) (cyclin D1; [3]): 90% | Cyclin D (IHC OD value), Day 21 (cyclin D1; [9]): 10 | cyclin D1 inhibition (Day 21 vs Day 0) (cyclin D1; [13]): 49% | cyclin D1 inhibition (Day 21 vs Day 0) (cyclin D1; [4]): 76% | cyclin D1 inhibition (Day 21 vs Day 0) (cyclin D1; [5]): 90% | Cyclin D (IHC OD value), Day 21 (cyclin D1; [10]): 12 | cyclin D1 inhibition (Day 21 vs Day 0) (cyclin D1; [6]): 57% | TUNEL % change (tumor cells; [7]): 0% | TUNEL % change (tumor cells; [8]): +2400% | Percentage of tumor cells stained positive by TUNEL, Day 21 vs Day 0 (tumor cells; all four patients achieving Partial Response): markedly increased | TUNEL score (percent tumor cells staining positive), Day 21 (tumor cells; [7]): 0 | TUNEL score, Day 21 vs Day 0 (tumor cells; patient with ErbB1-overexpressing head and neck carcinoma, tumor regression after 8 weeks not qualifying as PR): increased | TUNEL score, Day 21 vs Day 0 (tumor cells; [4]): did not show an increase | TUNEL score, Day 21 vs Day 0 (tumor cells; patients with PD at 8 weeks): did not increase | TUNEL score (percent tumor cells staining positive), Day 21 (tumor cells; [8]): 72 | pErbB2 % change (p-ErbB2; [9]): 0% | pErbB2 % change (p-ErbB2; [10]): −83% | p-ErbB2 inhibition (Day 21 vs Day 0) (p-ErbB2; [3]): not associated with any appreciable inhibition | pErbB2 (IHC OD value), Day 21 (p-ErbB2; [9]): 3 | p-ErbB2 inhibition (Day 21 vs Day 0) (p-ErbB2; [13]): 72% | p-ErbB2 change (Day 21 vs Day 0) (p-ErbB2; [5]): remained unchanged | pErbB2 (IHC OD value), Day 21 (p-ErbB2; [10]): 5 | p-ErbB2 inhibition (Day 21 vs Day 0) (p-ErbB2; [6]): 83%

— patent publication US7794960B2, “Predictive biomarkers in cancer therapy” (GlaxoSmithKline LLC, priority 2004, dated 2010)
